Where “and” joins values, the source holds several entries; their conditions need not be identical. Equal entries are not always repeated. Where two headings read alike, the source gives them in different places. Where a SMILES comes first, the peptide text is derived from it.
Experiments:
[1] = test system: PT; assay type: binding, Bordetella pertussis; details: input of 400 pmol peptide to 1 μl streptavidin sepharose
[2] = test system: purified Pertussis Toxin; assay: binding of purified PT to peptides immobilized on streptavidin sepharose; design: species or system Bordetella pertussis; details: ~200 pmol peptide on streptavidin sepharose, 100 pmol purified PT, gel, silver staining
Sequence of purified Pertussis Toxin (P04977 35-269 limits assumed): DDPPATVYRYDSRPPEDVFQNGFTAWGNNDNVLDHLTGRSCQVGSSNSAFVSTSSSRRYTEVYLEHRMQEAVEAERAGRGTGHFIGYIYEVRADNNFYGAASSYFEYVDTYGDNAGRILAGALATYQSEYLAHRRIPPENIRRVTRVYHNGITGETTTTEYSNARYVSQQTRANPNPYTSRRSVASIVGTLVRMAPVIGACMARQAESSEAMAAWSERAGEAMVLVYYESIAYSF
Sequence of purified Pertussis Toxin (P04978 28-226 limits assumed, further chain): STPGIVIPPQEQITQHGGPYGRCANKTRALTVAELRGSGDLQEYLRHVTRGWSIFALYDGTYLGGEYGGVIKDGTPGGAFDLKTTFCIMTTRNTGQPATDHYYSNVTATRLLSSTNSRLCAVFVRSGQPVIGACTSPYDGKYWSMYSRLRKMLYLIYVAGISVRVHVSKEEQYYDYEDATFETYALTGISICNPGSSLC
Sequence of purified Pertussis Toxin (P04979 29-227 limits assumed, further chain): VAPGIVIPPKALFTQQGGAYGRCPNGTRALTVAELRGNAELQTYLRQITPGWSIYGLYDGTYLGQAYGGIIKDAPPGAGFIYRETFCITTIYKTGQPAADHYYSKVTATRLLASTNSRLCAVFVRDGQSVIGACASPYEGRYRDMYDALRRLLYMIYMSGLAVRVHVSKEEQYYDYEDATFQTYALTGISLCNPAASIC
Sequence of purified Pertussis Toxin (P0A3R5 43-152 limits assumed, further chain): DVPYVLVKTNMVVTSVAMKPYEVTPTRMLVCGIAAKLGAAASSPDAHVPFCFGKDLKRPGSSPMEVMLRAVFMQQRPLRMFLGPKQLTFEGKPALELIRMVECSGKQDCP
Sequence of purified Pertussis Toxin (P04981 35-133 limits assumed, further chain): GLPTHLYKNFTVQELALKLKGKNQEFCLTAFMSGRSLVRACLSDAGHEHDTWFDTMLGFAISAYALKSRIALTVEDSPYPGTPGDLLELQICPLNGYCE

[3] = test system: PT; assay: stability of PT/peptide complexes, BIAcore 2000; assay type: binding, Bordetella pertussis; details: for pH range stability of the complex (stable): PT/peptide complex, instable at pH 2.5 or 10.5
Procedure: The stability of PT/peptide complexes were investigated using the BIAcore 2000 instrument under different pH and salt conditions that were shown before not to interfere with the PT hexamer stability. 500-1000 RU of the synthetic peptides were immobilized on BIAcore streptavidin chips. To allow binding of PT to the immobilized peptides, 20 nM purified PT in HEPES buffer was injected for 1 minute. After equilibration with HBS/EP running buffer (0.01 M HEPES pH 7.4, 0.15 M NaCl 3 mM EDTA 0.005% polysorbate 20 (v/v)) the PT/peptide complexes were washed by injection of • (a) 100 mM carbonate buffer at pH 10.5 and 9.5 • (b) 10 mM acetate buffer at pH 5.5, 5.0, 4.5, and 4.0 • (c) 10 mM glycine buffer at pH 3.0 and 2.5 • (d) 0.5, 1.0, 1.5, 2.0 M NaCl in 10 mM acetate buffer, pH 6.0, • (e) 0.5, 1.0, 1.5, 2.0 M NaCl in 50 mM Tris/HCl buffer, pH 8.5, • (f) 0.5, 1.0, 1.5, 2.0 M KCl in 10 mM acetate buffer, pH 6.0, • (g) 0.5, 1.0, 1.5, 2.0 M KCl in 50 mM Tris/HCl buffer, pH 8.5, • (h) 0.5, 1.0, 1.5, 2.0 M NaCl in 10 mM acetate buffer, pH 6.0, • (i) 0.5, 1.0, 1.5, 2.0 M NaCl in 50 mM Tris/HCl buffer, pH 8.5.
After the end of each buffer injection, the chip was equilibrated with HBS/EP running buffer. The loss of PT hexamer on the chip under the applied buffer conditions (difference of measured RU signal before and after buffer injection) reflects the PT/peptide complex stability.

[4] = test system: PT; assay: reutilization of peptide sepharose for repeated PT binding and elution; design: species or system Bordetella pertussis; details: 4 cycles of PT binding, carbonate pH 10.5 elution, 10 mM HCl regeneration
Procedure: For binding of PT each peptide streptavidin sepharose was incubated with 400 μl sample B (adjusted to pH 7.0-7.5 by addition of HC1) for 1 hour at RT and washed 4 times with 50 mM Tris/HC1, pH 7.5 (each 200 μl). PT was eluted by 4 consecutive elutions with 100 mM Carbonate buffer at pH 10.5 (each 20 μl). Subsequently the column matrices were regenerated by three washes with 10 mM HC1 (l×20 μl, 2×100 μl) and afterwards neutralized by two washes with 200 μl 50 mM Tris/HC1, pH 7.5. This binding, elution and regeneration procedure was applied to the peptide sepharose for three additional times. […] (FIG. 25). • 5. Large-scale FPLC-Purification of PT

[5] = test system: PT; details: phage display, Bogdan, et al.; cited from earlier work
[6] = test system: PT immobilized on Streptavidin beads
Sequence of PT immobilized on Streptavidin beads (P04977 35-269 limits assumed): as the sequence (P04977 35-269 limits assumed) above
Sequence of PT immobilized on Streptavidin beads (P04978 28-226 limits assumed, further chain): as the sequence (P04978 28-226 limits assumed, further chain) above
Sequence of PT immobilized on Streptavidin beads (P04979 29-227 limits assumed, further chain): as the sequence (P04979 29-227 limits assumed, further chain) above
Sequence of PT immobilized on Streptavidin beads (P0A3R5 43-152 limits assumed, further chain): as the sequence (P0A3R5 43-152 limits assumed, further chain) above
Sequence of PT immobilized on Streptavidin beads (P04981 35-133 limits assumed, further chain): as the sequence (P04981 35-133 limits assumed, further chain) above

[7] = test system: PT; assay: estimation of peptides binding capacity (fraction of binding active peptide); design: species or system Bordetella pertussis; details: 20 pmol sepharose-immobilized peptide, 100 pmol PT (500 nM); 1:1 binding assumed
Procedure: For estimation of peptides binding capacity 20 pmol of sepharose-immobilized peptides were incubated with an excess of 100 pmol PT in a volume of 200 μl HEPES buffer (corresponds to 500 nM PT). After washing, the fraction of peptide-streptavidin sepharose bound PT was quantified by gel analysis. This allows directly to calculate the fraction of binding active peptide under the applied conditions (assuming the PT/peptide binding ratio is 1:1). Under the assumption that a concentration of 500 nM PT is high enough to reach Bmax for all peptides. The values presented therein are estimations for the expectable binding capacities of the peptides. An exact evaluation of binding capacity (Bmax) and dissociation constant (KD) of the most suitable binder may also be performed.

[8] = test system: PT; assay type: binding, Bordetella pertussis
[9] = test system: chip immobilized biotinylated PT; details: BIAcore streptavidin chip
Sequence of chip immobilized biotinylated PT (P04977 35-269 limits assumed): as the sequence (P04977 35-269 limits assumed) above
Sequence of chip immobilized biotinylated PT (P04978 28-226 limits assumed, further chain): as the sequence (P04978 28-226 limits assumed, further chain) above
Sequence of chip immobilized biotinylated PT (P04979 29-227 limits assumed, further chain): as the sequence (P04979 29-227 limits assumed, further chain) above
Sequence of chip immobilized biotinylated PT (P0A3R5 43-152 limits assumed, further chain): as the sequence (P0A3R5 43-152 limits assumed, further chain) above
Sequence of chip immobilized biotinylated PT (P04981 35-133 limits assumed, further chain): as the sequence (P04981 35-133 limits assumed, further chain) above
Excerpt: The quality of the biotinylation reaction was controlled by analysis of the interaction of biotinylated PT with a BIAcore streptavidin chip using BIAcore instrument (BIAcore 2000).

[10] = test system: PT immobilized on a CM5 chip; assay type: binding, Bordetella pertussis
Sequence of PT immobilized on a CM5 chip (P04977 35-269 limits assumed): as the sequence (P04977 35-269 limits assumed) above
Sequence of PT immobilized on a CM5 chip (P04978 28-226 limits assumed, further chain): as the sequence (P04978 28-226 limits assumed, further chain) above
Sequence of PT immobilized on a CM5 chip (P04979 29-227 limits assumed, further chain): as the sequence (P04979 29-227 limits assumed, further chain) above
Sequence of PT immobilized on a CM5 chip (P0A3R5 43-152 limits assumed, further chain): as the sequence (P0A3R5 43-152 limits assumed, further chain) above
Sequence of PT immobilized on a CM5 chip (P04981 35-133 limits assumed, further chain): as the sequence (P04981 35-133 limits assumed, further chain) above

Sequence of PT (P04977 35-269 limits assumed): as the sequence (P04977 35-269 limits assumed) above
Sequence of PT (P04978 28-226 limits assumed, further chain): as the sequence (P04978 28-226 limits assumed, further chain) above
Sequence of PT (P04979 29-227 limits assumed, further chain): as the sequence (P04979 29-227 limits assumed, further chain) above
Sequence of PT (P0A3R5 43-152 limits assumed, further chain): as the sequence (P0A3R5 43-152 limits assumed, further chain) above
Sequence of PT (P04981 35-133 limits assumed, further chain): as the sequence (P04981 35-133 limits assumed, further chain) above

Pertussis toxin [PT]
pH range over which Pertussis toxin hexamer is stable (BIAcore, buffers pH 2-10.5): 2.5-10.5 pH
PT hexamer stability (%) (pH 2): 93%
PT hexamer stability (%) (pH 2.5): 98%
PT hexamer stability (%) (pH 3): 100%
PT hexamer stability (%) (pH 4): 100%
PT hexamer stability (%) (pH 4.5): 100%
PT hexamer stability (%) (pH 5): 100%
PT hexamer stability (%) (pH 5.5): 100%
PT hexamer stability (%) (pH 8.5): 100%
PT hexamer stability (%) (pH 9.6): 98%
PT hexamer stability (%) (pH 10.5): 95%

SGCVKKDELCSQSVPMCCEPLECKWFNENYGICGS [gurmarin 15n]
Amount of elutable peptide (effectively bound fraction of peptide) [1]: 50 pmol
binding to purified PT [2]: clear binding
pH range stability of the complex (stable) [3]: 3-9 pH
KCl stability of the complex (stable) ([3]; pH 6): sensitive to salt
MgCl2 stability of the complex: Elution ([3]; pH 6): Elution ≧1M,
MgCl2 stability of the complex: complete elution ([3]; pH 6): elution ≧2M
NaCl stability of the complex (stable) ([3]; pH 6): sensitive to salt
KCl stability of the complex (stable) ([3]; pH 8.5): sensitive to salt
MgCl2 stability of the complex: complete elution ([3]; pH 8.5): elution ≧2M
NaCl stability of the complex (stable) ([3]; pH 8.5): sensitive to salt
reusability of peptide loaded sepharose [4]: may be re-utilized

DGSFSGF [3G2]
PT-binding capacity [5]: PT-binding capacity

MGRGSHHHHHHARSTMNTNRMDIQRLMTNHVKRDSSPGSIDANAPKASAI [PP26 variant 6]
target binding to PT in the presence of AP process fluids [6]: not reduced

RSSHCRHRNCHTITRGNMRIETPNNIRKDA [pp26 5n]
Fraction of binding active peptide [7]: > 5%
binding to purified PT [2]: clear binding

SGCVKKDELCELAIDECCEPLECTKGDLGFRKCG [gurmarin 19n]
binding to purified PT [2]: clear binding

NGSFSGC [3G8]
PT-binding capacity [5]: PT-binding capacity

MHHHHHHSGSSSGSGCVKKDELCELAVDECCEPLECTKGDLGFRKCGSGSSGSS [gurmarin variant 19]
target binding to PT in the presence of AP process fluids [6]: not influenced

MGRGSHHHHHHARSNVIPLNEVWYDTGWDRPHRSRLSIDDDANAPKASAI [PP26 variant 9]
target binding to PT in the presence of AP process fluids [6]: not reduced

SGCVKKDELCARWDLVCCEPLECIYTSELYATCG [gurmarin 9n]
Fraction of binding active peptide [7]: >12.5%
binding to purified PT [2]: clear binding
NaCl in buffer that interferes with PT/peptide complex stability [3]: 2.5 M
pH range stability of the complex (stable) [3]: 3-9 pH
KCl stability of the complex (stable) ([3]; pH 8.5): strong sensitive to salt
NaCl stability of the complex (stable) ([3]; pH 8.5): strong sensitive to salt

RSSHCRHRNCHTITRGNMRIETPNNIRKDAK [pp26 5c]
binding to purified PT [2]: clear binding

MGRGSHHHHHHARSSHCRHRNCHTITRGNMRIETPNNIRKDANAPKASAI [PP26 variant 5]
target binding to PT in the presence of AP process fluids [6]: not reduced

asialofetuin
Amount of PT bound [8]: ~8 pmol and ~16 pmol
binding signal to immobilized PT [9]: ~400 RU
unspecific binding to the control cell [9]: ~100 RU

MHHHHHHSGSSSGSGCVKKDELCARWDLVCCEPLECIYTSELYATCGSGSSGSS [gurmarin variant 9]
target binding to PT in the presence of AP process fluids [6]: not influenced

NGSFSGF [3G5]
PT-binding capacity [5]: PT-binding capacity

SGCVKKDELCELAVDECCEPLECFQMGHGFKRCG [gurmarin 10n]
Fraction of binding active peptide [7]: > 5%
binding to purified PT [2]: clear binding

RSWRDTRKLHMRHYFPLAIDSYWDHTLRDA [pp26 15n]
Fraction of binding active peptide [7]: >12.5%
binding to purified PT [2]: clear binding
pH range stability of the complex (stable) [3]: 3-9 pH
KCl stability of the complex (stable) ([3]; pH 6): 2 M
MgCl2 stability of the complex (stable) ([3]; pH 6): to 2M
NaCl stability of the complex (stable) ([3]; pH 6): 2 M
KCl stability of the complex (stable) ([3]; pH 8.5): 2 M
MgCl2 stability of the complex: complete elution ([3]; pH 8.5): not
NaCl stability of the complex (stable) ([3]; pH 8.5): 2 M
MgCl2 stability of the complex: Elution / destabilized ([3]; pH 8.5 (50 mM Tris/HCl)): Elution ≧1.5, M

CC[C@H](C)[C@H](NC(=O)[C@H](CO)NC(=O)[C@H](CC(C)C)NC(=O)[C@H](CCCNC(=N)N)NC(=O)[C@H](CO)NC(=O)[C@H](CCCNC(=N)N)NC(=O)[C@H](Cc1c[nH]cn1)NC(=O)[C@@H]1CCCN1C(=O)[C@H](CCCNC(=N)N)NC(=O)[C@H](CC(=O)O)NC(=O)[C@H](Cc1c[nH]c2ccccc12)NC(=O)CNC(=O)[C@@H](NC(=O)[C@H](CC(=O)O)NC(=O)[C@H](Cc1ccc(O)cc1)NC(=O)[C@H](Cc1c[nH]c2ccccc12)NC(=O)[C@@H](NC(=O)[C@H](CCC(=O)O)NC(=O)[C@H](CC(N)=O)NC(=O)[C@H](CC(C)C)NC(=O)[C@@H]1CCCN1C(=O)[C@@H](NC(=O)[C@@H](NC(=O)[C@H](CC(N)=O)NC(=O)[C@H](CO)NC(=O)[C@H](CCCNC(=N)N)NC(=O)COCCOCCNC(=O)CCCC[C@@H]1SC[C@@H]2NC(=O)N[C@@H]21)C(C)C)[C@@H](C)CC)C(C)C)[C@@H](C)O)C(=O)N[C@@H](CC(=O)O)C(=O)N[C@@H](CC(=O)O)C(=O)N[C@@H](CC(=O)O)C(=O)N[C@@H](C)C(=O)O [pp26 9n] (HELM PEPTIDE1{[O=C1N[C@H]2[C@H](CS[C@H]2CCCCC(=O)[*:2])N1].[O=C(COCCOCCN[*:1])[*:2]].R.S.N.V.I.P.L.N.E.V.W.Y.D.T.G.W.D.R.P.H.R.S.R.L.S.I.D.D.D.A}$$$$V2.0)
Association rate constant kon [10]: 130000 M⁻¹ s⁻¹
Dissociation rate constant koff [10]: 10^−3 s^−1

MHHHHHHSGSSSGSGCVKKDELCELAVDECCEPLECFQMGHGFKRCGSGSSGSS [gurmarin variant 10]
target binding to PT in the presence of AP process fluids [6]: not influenced
